Tests used:
[1] = tested on: Mper1-luc Rat-1 (P2C4) fibroblasts; assay: Circadian cell assay: mPer1-promoter luciferase reporter, period prolongation; assay type: cell-based; conditions: effective concentration that induced a 1-hour prolongation of the circadian period
Procedure: Mper1-luc Rat-1 (P2C4) fibroblast cultures were prepared by dividing the cultures every 3-4 days (approximately 10-20% of confluence) on 150 cm^2 degassed polystyrene tissue culture flasks (Falcon® #35-5001) and maintained in growth medium [EMEM (Cellgro #10-010-CV); 10% foetal bovine serum (FBS; Gibco #16000-044); and 50 I.U./ml of penicillin-streptomycin (Cellgro #30-001-CI)] at 37° C. and under 5% CO2.
Cells obtained from Rat-1 fibroblast cultures at 30-50% of confluence as described above were co-transfected with vectors containing the selectable marker for zeocin resistance for a stable transfection and a luciferase reporter gene controlled by the mPer-1 promoter. After 24 to 48 hours, the cultures were divided on 96-well plates and maintained in growth medium supplemented with 50-100 μg/ml of zeocin (Invitrogen® #45-0430) for 10-14 days. The zeocin-resistant stable transfectants were evaluated for the expression of the reporter gene by adding 100 μM luciferin (Promega® #E1603®) to the growth medium and by assaying the luciferase activity on a TopCount® scintillation counter (Packard Model #C384V00). The Rat-1 cell clones expressing both zeocin resistance and luciferase activity controlled by mPer1 were serum-shock synchronized with 50% horse serum [HS (Gibco® #16050-122)] and the activity of the circadian reporter was evaluated. The P2C4 clone of Mper1-luc Rat-1 fibroblasts was selected to test the compound.
Mper1-luc Rat-1 (P2C4) fibroblasts at 40-50% of confluence, obtained according to the protocol described above, were plated out onto 96-well opaque tissue culture plates (Perkin Elmer® #6005680). The cultures are maintained in growth medium supplemented with 100 μg/mL of zeocin (Invitrogen #45-0430) until they have reached 100% of confluence (48-72 h). The cultures were then synchronized with 100 μl of synchronization medium [EMEM (Cellgro #10-010-CV); 100 I.U./ml of penicillin-streptomycin (Cellgro #30-001-C1); HS at 50% (Gibco #16050-122)] for 2 hours at 37° C. and under 5% CO2. After synchronization, the cultures were rinsed with 100 μl of EMEM (Cellgro #10-010-CV) for 10 minutes at ambient temperature. After rinsing, the medium was replaced with 300 μl of CO2 independent medium [CO2I (Gibco #18045-088); 2 mM L-glutamine (Cellgro #25-005-C1); 100 I.U./ml of penicillin-streptomycin (Cellgro #30-001-C1); 100 μM luciferin (Promega #E 1603)]. […]
The period analysis was performed either by determining the interval between the relative light emission minima over several days or by Fourier transform. […] The data were analysed by adjusting a hyperbolic curve to the data expressed as change of period (Y-axis) as a function of the concentration of the test compound (X-axis) in the XLfit™ software, and the CE Delta (t+1 h) was interpolated from this curve.

Compound | CE Delta (t + 1 h) [1] [nM] | melting point [°C]
Cc1ccc(-c2nc3ccc(N4CCNCC4)nn3c2-c2ccncc2)s1 [Compound 10, 2-(5-methylthien-2-yl)-6-(piperazin-1-yl)-3-(pyridin-4-yl)imidazo[1,2-b]pyridazine] | 360 | 
OCCN1CCN(c2ccc3nc(-c4ccc(Cl)s4)c(-c4ccncc4)n3n2)CC1 [Compound 14, 2-{4-[2-(5-chlorothien-2-yl)-3-(pyridin-4-yl)imidazo[1,2-b]pyridazin-6-yl](piperazin-1-yl)}ethanol] | 60 to 117 | 216 to 218

Source: patent US20130190314A1, “DERIVATIVES OF 6-CYCLOAMINO-2-THIENYL-3-(PYRIDIN-4-YL)IMIDAZO[1,2-b]-PYRIDAZINE AND 6-CYCLOAMINO-2-FURANYL-3-(PYRIDIN-4-YL)IMIDAZO[1,2-b]-PYRIDAZINE, PREPARATION AND THERAPEUTIC USE THEREOF” (priority 2008, published 2013)
